One assay has as its system ST-13. Kind of assay: Induction of mouse ST-13 cell differentiation assessed as increase in accumulation of lipid droplets in cytosol at 2 to 4 uM after 11 days by oil red o staining-based phase contrast microscopic analysis. Format: functional.
A short description of assay [1]: Upregulation of adiponectin mRNA expression in mouse ST-13 cells at 2 uM by RT-qPCR analysis relative to control. Format: functional, cell-based. A general note: Real-time PCR tracks product formation cycle by cycle.
The target in assay [2] is T1, Peroxisome proliferator-activated receptor gamma (Homo sapiens) (UniProt P37231).
T1 sequence (whole entry): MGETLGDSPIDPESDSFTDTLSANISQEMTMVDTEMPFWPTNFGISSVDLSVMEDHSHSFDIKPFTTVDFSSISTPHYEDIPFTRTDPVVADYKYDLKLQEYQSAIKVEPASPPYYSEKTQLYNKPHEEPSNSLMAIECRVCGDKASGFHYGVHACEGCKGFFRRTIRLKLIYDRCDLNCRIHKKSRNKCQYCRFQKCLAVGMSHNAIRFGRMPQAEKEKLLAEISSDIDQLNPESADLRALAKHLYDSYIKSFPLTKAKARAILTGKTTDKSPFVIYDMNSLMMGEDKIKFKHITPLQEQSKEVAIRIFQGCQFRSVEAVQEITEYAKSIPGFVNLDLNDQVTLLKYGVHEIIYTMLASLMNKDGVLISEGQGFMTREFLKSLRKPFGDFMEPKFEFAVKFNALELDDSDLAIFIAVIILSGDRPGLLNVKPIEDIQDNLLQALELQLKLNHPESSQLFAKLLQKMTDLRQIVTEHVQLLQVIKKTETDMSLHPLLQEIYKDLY
As to the kind of experiment: Agonist activity at human PPARgamma ligand binding domain fused with GAL4 DNA binding domain transfected in African green monkey COS1 cells assessed as transcriptional activation after 24 hrs by Steady-Glo luciferase reporter gene assay. Format: cell-based. The conditions noted are these: COS-1. On the technique in general: Reporter assays use an easily measured gene product as a stand-in for the process of interest.

Active and inactive are the calls of the source. The calls are words filed in the database; no cut-off is given here. Where a SMILES comes first, the peptide text is derived from it. [ ]: non-standard residue; d: D form. Hica(2S) = CC(C)C[C@H](O)C(=O)O; NMeL = CN[C@@H](CC(C)C)C(=O)O

Regarding `CC(C)C[C@@H]1NC(=O)[C@H](C(C)C)NC(=O)[C@H](CC(C)C)OC(=O)[C@H](Cc2ccccc2)NC(=O)[C@H](Cc2ccccc2)NC1=O` (cyclo(FF[Hica(2S)]VL)), in the assay with ST-13, the outcome was Active. The fold change (FC) in assay [1] was 5.2. The Activity result in assay [2] was “Dose-dependent effect”.

In the case of `CC(C)C[C@@H]1OC(=O)[C@H](Cc2ccccc2)NC(=O)[C@H](Cc2ccccc2)NC(=O)[C@H](CC(C)C)N(C)C(=O)[C@H](C(C)C)NC1=O` (cyclo(FF[Hica(2S)]V[NMeL])), the outcome with ST-13 was Active. Further, in assay [1], the fold change (FC) worked out at 13.3. The Activity result in assay [2] was “Dose-dependent effect”.

With `CC(C)C[C@@H]1OC(=O)[C@H](Cc2ccccc2)NC(=O)[C@H](Cc2c[nH]c3ccccc23)NC(=O)[C@H](CC(C)C)N(C)C(=O)[C@H](C(C)C)NC1=O` (cyclo(F[Hica(2S)]V[NMeL]W)), in the assay with ST-13, the outcome was Active. This molecule also registered a fold change (FC) in assay [1] of 10. Also, the Activity result in assay [2] was “Dose-dependent effect”.

For the origin of these results see ChEMBL document CHEMBL3580652, “Hikiamides A-C, Cyclic Pentadepsipeptides from Fusarium sp. TAMA 456” (J Nat Prod, 2015).
